Data taken from ChEMBL document CHEMBL1201862, “PubChem BioAssay data set” (2004).
The source made the active and inactive calls.

Legend:
[1] = target: Hexokinase HKDC1 (Homo sapiens, UniProt Q2TB90); test: activation of HKDC1 glucose phosphorylation – biochemical, W721R variant, dose response (AID 504730); type: functional
[2] = target: Scavenger receptor class B member 1 (Mus musculus, UniProt Q61009); test: mouse SR-BI DiI-HDL uptake blockers – ldlA[mSR-BI] cells, fluorescence, cherry pick, dose response (AID 493194); type: functional, cell-based;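 further: cellular uptake of fluorescent DiI-labeled HDL measured as cell fluorescence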
[3] = target: Hexokinase-1 (Homo sapiens, UniProt P19367); test: HK1 enzyme activation by HKDC1 hits – biochemical, selectivity assay for HKDC1 activator project, dose response (AID 504762); type: functional
[4] = Fluorescence-based cell-based high throughput dose response assay for inhibitors of the interaction of nucleotide-binding oligomerization domain containing 2 (NOD2) and the receptor-interacting serine-threonine kinase 2 (RIPK2).; type: functional; conditions: Homo sapiens
[5] = target: T1, Histone-lysine N-methyltransferase NSD2 (Homo sapiens, UniProt O96028); type: biochemical
T1 sequence (O96028 whole entry): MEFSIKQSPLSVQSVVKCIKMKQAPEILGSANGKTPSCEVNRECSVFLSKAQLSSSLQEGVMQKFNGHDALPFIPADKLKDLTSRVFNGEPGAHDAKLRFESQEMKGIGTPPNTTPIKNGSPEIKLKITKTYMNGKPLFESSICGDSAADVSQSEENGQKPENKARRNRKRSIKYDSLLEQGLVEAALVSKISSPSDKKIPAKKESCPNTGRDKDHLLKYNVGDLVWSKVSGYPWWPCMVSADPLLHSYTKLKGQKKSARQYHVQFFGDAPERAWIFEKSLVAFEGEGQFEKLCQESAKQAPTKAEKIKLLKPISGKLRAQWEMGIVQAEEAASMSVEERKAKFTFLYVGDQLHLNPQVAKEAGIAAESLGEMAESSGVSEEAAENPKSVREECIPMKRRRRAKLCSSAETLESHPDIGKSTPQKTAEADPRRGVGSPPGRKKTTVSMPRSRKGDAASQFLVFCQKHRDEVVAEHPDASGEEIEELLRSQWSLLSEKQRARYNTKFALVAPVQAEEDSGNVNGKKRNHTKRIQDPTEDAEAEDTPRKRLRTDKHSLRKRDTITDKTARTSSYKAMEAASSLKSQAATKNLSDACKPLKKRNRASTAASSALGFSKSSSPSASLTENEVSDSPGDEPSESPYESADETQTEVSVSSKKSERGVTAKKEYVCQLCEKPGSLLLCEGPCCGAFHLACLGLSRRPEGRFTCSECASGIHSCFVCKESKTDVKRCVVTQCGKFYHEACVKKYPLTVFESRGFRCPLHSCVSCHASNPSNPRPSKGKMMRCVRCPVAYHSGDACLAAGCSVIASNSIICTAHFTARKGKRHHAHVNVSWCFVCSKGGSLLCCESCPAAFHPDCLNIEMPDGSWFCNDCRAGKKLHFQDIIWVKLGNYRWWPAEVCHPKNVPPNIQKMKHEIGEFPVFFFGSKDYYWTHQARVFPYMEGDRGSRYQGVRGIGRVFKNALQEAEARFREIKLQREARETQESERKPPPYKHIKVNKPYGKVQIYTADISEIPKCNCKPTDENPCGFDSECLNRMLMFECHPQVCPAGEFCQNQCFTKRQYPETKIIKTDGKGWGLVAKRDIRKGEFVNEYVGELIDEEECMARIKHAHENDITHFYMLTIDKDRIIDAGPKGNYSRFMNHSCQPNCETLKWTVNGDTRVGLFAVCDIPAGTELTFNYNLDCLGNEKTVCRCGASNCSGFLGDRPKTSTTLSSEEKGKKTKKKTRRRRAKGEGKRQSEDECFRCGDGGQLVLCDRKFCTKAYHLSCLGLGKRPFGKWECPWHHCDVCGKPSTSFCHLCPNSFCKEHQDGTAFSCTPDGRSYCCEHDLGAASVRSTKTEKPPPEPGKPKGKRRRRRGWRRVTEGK

[6] = target: Potassium voltage-gated channel subfamily KQT member 2 (Rattus norvegicus, UniProt O88943); test: rat KCNQ2 current potentiators – automated patch clamp, KCNQ2-CHO cells, SAR follow-up (AID 493113); type: functional
[7] = target: Tumor necrosis factor (Homo sapiens, UniProt P01375); test: analog potency on TNFa NF-kB signaling – cell-based, revised, SAR follow-up (AID 2337); type: functional
[8] = target: Nucleotide-binding oligomerization domain-containing protein 1 (Homo sapiens, UniProt Q9Y239); test: blockers of NOD1 pathway activity – revised, SAR follow-up (AID 2333); type: functional
[9] = target: Nucleotide-binding oligomerization domain-containing protein 2 (Homo sapiens, UniProt Q9HC29); test: PubChem AID 2334; type: functional
[10] = system: HEK293; test: cells; conditions: Homo sapiens;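 further: cells exposed to compound for 14 hours overnight before viability readout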
[11] = target: Sphingosine 1-phosphate receptor 5 (Homo sapiens, UniProt Q9H228); test: Late stage counterscreen assay for S1P4 antagonists: Fluorescence dose response cell-based screening assay for antagonists of the Sphingosine 1-Phosphate Receptor 5 (S1P5). [Related pubchem assays (depositor defined):AID1510, AID1524, AID1692, AID1853, AID2332, AID489009, AID489017]; type: functional
[12] = target: Sphingosine 1-phosphate receptor 3 (Homo sapiens, UniProt Q99500); test: Late stage counterscreen assay for S1P4 antagonists: Fluorescence dose response cell-based screening assay for antagonists of the Sphingosine 1-Phosphate Receptor 3 (S1P3). [Related pubchem assays (depositor defined):AID1510, AID1524, AID1692, AID1853, AID2332, AID489009, AID489017]; type: functional
[13] = target: Sphingosine 1-phosphate receptor 1 (Homo sapiens, UniProt P21453); test: Late stage counterscreen assay for S1P4 antagonists: Fluorescence dose response cell-based screening assay for antagonists of the Sphingosine 1-Phosphate Receptor 1 (S1P1). [Related pubchem assays (depositor defined):AID1510, AID1524, AID1692, AID1853, AID2332, AID489009, AID489017]; type: functional
[14] = target: T2, Sphingosine 1-phosphate receptor 4 (Homo sapiens, UniProt O95977); test: potency of S1P4 blockers – cell-based, fluorescence, synthesized analogues, late-stage follow-up (AID 2346); type: functional
T2 sequence (O95977 whole entry): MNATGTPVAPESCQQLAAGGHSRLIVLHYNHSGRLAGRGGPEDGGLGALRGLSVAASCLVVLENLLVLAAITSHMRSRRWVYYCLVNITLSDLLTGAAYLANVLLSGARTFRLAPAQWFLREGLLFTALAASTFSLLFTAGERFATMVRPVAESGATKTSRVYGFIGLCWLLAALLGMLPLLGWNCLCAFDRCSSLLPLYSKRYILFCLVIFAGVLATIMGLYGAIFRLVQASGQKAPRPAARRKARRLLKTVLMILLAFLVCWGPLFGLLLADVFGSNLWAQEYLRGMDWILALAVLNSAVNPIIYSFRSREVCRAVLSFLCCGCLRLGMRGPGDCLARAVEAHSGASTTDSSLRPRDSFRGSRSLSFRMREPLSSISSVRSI

[15] = target: Sphingosine 1-phosphate receptor 2 (Homo sapiens, UniProt O95136); test: Late stage counterscreen assay for S1P4 antagonists: Fluorescence dose response cell-based screening assay for antagonists of the Sphingosine 1-Phosphate Receptor 2 (S1P2). [Related pubchem assays (depositor defined):AID1510, AID1524, AID1692, AID1853, AID2332, AID489009, AID489017]; type: functional
[16] = system: Streptococcus sp. 'group A'; test: Streptococcus pyogenes SK(-)GAS viability under kanamycin – luminescence, BacTiterGlo, confirmation, counter-screen for streptokinase expression inhibitor project, dose response (AID 1900); type: functional, organism-based
[17] = target: T3, Streptokinase A (Streptococcus pyogenes serotype M1, UniProt P10520); test: viability-normalized secreted streptokinase activity reduction – plasminogen activation absorbance, OD405, dose response (AID 1914); type: functional, Streptococcus pyogenes M1 GAS;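 further: secreted streptokinase activity via plasminogen activation per viability signal from cell pellet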
T3 sequence (P10520 whole entry): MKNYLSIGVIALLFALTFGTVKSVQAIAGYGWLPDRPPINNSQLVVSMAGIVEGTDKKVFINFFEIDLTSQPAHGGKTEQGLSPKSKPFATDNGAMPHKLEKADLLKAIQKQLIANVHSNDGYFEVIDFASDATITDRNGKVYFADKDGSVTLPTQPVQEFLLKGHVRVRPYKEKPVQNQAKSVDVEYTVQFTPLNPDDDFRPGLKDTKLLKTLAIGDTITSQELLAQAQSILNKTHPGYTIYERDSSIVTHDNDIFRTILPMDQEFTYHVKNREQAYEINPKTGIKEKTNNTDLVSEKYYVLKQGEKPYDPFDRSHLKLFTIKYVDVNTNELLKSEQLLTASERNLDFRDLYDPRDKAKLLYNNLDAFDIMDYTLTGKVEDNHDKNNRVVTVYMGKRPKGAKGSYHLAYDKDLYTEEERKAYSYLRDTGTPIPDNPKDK

[18] = system: Streptococcus; test: GAS UMAA2166 growth inhibition – luminescence, BacTiterGlo, counter-screen for streptokinase expression inhibitor project, dose response (AID 1915); type: functional, organism-based;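 further: potency for reduction of bacterial viability or growth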
[19] = target: Intestinal-type alkaline phosphatase (Mus musculus, UniProt P24822); test: PubChem AID 488785; type: functional
[20] = target: T4, Alkaline phosphatase, tissue-nonspecific isozyme (Homo sapiens, UniProt P05186); test: TNAP enzyme inhibition by screening hits, dose response, selectivity assay for mouse IAP inhibitor project, biochemical, human TNAP, uHTS hits (AID 488906); type: functional
T4 sequence (P05186 whole entry): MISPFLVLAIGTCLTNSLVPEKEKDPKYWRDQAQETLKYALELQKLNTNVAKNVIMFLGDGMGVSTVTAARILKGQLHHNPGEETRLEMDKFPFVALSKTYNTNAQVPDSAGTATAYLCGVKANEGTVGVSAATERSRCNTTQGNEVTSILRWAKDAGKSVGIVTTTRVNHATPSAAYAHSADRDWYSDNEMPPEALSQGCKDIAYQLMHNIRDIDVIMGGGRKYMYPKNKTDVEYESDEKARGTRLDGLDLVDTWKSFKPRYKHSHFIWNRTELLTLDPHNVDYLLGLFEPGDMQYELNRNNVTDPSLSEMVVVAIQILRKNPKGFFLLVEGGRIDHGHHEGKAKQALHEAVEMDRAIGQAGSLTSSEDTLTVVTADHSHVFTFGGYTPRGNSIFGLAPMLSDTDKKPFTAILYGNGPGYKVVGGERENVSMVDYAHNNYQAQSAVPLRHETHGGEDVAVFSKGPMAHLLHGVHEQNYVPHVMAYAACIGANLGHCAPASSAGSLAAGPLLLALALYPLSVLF

[21] = target: Intestinal-type alkaline phosphatase (Homo sapiens, UniProt P09923); test: inhibition of human intestinal alkaline phosphatase – biochemical, dose response (AID 488876); type: functional

Nucleotide-binding oligomerization domain-containing protein 2, sequence (Q9HC29 whole entry, the tested form may be a part): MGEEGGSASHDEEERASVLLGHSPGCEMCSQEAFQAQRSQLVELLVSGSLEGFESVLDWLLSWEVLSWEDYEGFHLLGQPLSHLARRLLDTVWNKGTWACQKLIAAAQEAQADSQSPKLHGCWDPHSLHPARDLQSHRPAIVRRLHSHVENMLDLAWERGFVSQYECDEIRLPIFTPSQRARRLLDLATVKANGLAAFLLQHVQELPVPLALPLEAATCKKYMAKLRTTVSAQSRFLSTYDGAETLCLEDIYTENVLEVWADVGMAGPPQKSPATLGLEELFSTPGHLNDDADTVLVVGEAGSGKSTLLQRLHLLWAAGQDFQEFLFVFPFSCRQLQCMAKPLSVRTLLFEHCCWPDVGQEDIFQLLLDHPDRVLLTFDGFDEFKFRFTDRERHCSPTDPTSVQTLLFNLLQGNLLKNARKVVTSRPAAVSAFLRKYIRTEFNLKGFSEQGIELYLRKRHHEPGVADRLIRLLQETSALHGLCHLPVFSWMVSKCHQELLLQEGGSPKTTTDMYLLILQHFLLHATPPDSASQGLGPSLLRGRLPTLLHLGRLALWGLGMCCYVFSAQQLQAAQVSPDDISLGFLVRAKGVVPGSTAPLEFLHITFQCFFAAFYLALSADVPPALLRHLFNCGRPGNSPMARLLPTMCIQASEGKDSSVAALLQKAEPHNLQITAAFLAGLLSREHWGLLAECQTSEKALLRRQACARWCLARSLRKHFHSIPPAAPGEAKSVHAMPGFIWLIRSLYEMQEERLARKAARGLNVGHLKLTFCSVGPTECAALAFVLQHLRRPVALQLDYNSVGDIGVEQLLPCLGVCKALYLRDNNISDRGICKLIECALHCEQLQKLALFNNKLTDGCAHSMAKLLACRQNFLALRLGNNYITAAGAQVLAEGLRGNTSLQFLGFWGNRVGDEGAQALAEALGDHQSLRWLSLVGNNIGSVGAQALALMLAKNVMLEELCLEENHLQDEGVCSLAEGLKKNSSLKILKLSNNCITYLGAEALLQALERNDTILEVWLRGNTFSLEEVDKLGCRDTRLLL
Sphingosine 1-phosphate receptor 5, sequence (Q9H228 whole entry): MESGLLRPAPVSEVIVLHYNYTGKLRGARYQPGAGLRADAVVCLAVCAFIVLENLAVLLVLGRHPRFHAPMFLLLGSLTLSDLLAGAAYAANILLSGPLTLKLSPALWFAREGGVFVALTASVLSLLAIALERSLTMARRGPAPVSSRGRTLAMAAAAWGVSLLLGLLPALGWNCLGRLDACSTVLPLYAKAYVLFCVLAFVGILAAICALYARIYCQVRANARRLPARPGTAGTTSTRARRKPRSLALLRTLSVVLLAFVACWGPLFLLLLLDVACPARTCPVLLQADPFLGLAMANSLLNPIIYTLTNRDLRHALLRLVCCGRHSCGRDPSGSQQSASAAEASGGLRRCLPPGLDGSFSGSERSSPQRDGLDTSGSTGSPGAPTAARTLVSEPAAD
Potassium voltage-gated channel subfamily KQT member 2, sequence (O88943 whole entry): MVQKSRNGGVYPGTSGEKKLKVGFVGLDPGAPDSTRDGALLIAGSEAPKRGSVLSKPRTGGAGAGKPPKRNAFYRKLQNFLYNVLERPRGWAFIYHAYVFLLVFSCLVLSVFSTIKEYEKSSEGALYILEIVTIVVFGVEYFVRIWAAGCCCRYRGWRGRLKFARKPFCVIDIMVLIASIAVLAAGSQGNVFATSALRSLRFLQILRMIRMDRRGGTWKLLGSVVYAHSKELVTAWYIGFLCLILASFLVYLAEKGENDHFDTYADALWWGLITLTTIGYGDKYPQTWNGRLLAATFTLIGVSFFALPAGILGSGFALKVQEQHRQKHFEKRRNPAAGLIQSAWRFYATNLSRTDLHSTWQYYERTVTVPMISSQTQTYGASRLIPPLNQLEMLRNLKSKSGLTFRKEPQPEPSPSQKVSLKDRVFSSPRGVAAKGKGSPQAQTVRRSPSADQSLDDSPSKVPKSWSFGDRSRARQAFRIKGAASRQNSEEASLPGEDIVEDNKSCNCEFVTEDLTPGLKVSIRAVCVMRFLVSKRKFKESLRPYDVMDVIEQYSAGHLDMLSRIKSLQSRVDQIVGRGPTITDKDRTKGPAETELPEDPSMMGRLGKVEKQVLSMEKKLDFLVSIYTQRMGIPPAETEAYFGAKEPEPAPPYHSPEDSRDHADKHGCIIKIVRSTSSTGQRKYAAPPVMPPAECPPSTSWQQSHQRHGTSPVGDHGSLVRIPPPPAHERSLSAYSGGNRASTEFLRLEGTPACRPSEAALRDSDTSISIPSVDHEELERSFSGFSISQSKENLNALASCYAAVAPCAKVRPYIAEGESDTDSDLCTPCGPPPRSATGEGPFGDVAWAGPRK
Hexokinase-1, sequence (P19367 whole entry, the tested form may be a part): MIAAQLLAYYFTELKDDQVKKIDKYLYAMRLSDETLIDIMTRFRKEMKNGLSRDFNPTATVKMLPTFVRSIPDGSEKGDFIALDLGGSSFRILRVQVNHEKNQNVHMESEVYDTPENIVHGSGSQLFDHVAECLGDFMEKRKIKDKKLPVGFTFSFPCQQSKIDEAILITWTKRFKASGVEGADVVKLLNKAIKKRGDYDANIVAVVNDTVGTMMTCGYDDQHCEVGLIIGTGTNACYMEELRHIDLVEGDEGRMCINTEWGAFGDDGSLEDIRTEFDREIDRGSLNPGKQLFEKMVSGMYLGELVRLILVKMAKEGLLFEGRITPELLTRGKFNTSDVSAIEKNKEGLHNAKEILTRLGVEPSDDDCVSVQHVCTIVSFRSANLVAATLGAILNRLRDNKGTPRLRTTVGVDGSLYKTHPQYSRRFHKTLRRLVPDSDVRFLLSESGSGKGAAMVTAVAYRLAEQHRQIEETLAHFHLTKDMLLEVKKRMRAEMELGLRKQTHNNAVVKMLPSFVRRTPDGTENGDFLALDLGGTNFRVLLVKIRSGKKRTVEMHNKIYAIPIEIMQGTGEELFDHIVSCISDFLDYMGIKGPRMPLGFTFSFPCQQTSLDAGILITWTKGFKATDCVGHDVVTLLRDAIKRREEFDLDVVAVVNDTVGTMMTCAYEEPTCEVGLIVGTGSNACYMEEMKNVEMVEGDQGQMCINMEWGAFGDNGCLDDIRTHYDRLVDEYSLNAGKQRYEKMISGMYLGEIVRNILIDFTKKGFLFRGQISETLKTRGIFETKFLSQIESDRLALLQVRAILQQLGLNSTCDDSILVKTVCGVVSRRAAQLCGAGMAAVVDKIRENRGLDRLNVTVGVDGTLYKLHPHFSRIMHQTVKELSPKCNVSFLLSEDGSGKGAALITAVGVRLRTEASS
Sphingosine 1-phosphate receptor 2, sequence (O95136 whole entry): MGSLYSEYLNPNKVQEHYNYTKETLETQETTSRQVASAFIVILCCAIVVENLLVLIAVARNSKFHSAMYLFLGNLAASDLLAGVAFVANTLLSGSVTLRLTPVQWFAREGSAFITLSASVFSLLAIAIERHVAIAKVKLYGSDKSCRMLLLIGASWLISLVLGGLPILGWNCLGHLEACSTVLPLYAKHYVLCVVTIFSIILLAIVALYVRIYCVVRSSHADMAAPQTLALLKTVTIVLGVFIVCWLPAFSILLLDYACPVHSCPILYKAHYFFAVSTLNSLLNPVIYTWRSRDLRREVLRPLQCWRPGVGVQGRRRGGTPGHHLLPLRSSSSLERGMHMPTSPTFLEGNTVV
Sphingosine 1-phosphate receptor 1, sequence (P21453 whole entry): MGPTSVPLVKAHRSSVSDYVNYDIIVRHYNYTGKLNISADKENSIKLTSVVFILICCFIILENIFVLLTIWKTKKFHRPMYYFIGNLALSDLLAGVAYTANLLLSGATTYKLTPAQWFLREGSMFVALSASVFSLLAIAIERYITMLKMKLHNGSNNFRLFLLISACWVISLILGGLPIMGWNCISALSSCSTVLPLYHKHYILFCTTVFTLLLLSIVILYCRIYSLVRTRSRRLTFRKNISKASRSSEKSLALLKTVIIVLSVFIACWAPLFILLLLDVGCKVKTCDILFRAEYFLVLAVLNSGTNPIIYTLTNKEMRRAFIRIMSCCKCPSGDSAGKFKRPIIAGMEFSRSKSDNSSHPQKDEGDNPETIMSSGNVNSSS
Tumor necrosis factor, sequence (P01375 whole entry, the tested form may be a part): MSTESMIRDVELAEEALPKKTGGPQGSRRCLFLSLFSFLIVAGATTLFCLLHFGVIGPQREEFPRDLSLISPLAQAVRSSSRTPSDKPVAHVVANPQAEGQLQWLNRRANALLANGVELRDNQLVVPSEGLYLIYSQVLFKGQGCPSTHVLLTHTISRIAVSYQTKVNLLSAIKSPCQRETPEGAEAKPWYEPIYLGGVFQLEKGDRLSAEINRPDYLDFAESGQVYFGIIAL
Intestinal-type alkaline phosphatase (Mus musculus, UniProt P24822), sequence (P24822 whole entry): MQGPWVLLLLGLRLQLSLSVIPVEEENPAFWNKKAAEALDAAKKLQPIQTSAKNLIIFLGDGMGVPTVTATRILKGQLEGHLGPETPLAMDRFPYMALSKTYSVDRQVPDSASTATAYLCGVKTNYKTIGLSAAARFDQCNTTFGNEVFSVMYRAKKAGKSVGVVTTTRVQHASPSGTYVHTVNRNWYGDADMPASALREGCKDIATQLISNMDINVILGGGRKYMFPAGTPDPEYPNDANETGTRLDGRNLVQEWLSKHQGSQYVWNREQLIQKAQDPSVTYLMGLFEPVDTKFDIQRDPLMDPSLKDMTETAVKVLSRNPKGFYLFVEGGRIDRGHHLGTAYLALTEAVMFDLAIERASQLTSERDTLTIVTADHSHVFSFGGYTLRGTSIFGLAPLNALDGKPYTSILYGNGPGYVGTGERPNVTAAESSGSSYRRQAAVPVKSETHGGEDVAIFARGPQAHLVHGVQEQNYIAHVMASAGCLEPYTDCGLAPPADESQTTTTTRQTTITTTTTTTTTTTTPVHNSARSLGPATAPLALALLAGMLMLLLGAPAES

Question: Which EC50 [1] does the source give for `CC(=O)OC1C2(CC3N4C(=O)C5(CO)SSC4(CC31O)C(=O)N5C)OC(C)C(C)(C)C2=O` (stereo unspecified) here?
Answer: Its EC50 is 0.212 µM (active).

Question: And the AC50 [2]?
Answer: The AC50 was 5.61 µM (active).

Question: What about the EC50 [3] of the same compound?
Answer: Its EC50 is > 80 µM (inactive).

Question: What about the IC50 [4] of the same compound?
Answer: Its IC50 is 3.64 µM (active).

Question: What about the AC50 [5] of the same compound?
Answer: Its AC50 is 1.06 µM (active).

Question: Which EC50 [6] does the source give for `Cc1cc(C)c(NC(=O)C2CCCCC2)c(C)c1` here?
Answer: Its EC50 is 1.57 µM (active).

Question: Which IC50 [7] does the source give for `O=C(Nc1nc2ccccc2n1Cc1ccc(Cl)cc1)c1ccc(Cl)cc1` here?
Answer: Its IC50 is > 20 µM (inactive).

Question: What about the IC50 [8] of the same compound?
Answer: The IC50 was > 20 µM (inactive).

Question: And the IC50 [9]?
Answer: The IC50 was > 20 µM (inactive).

Question: What about the IC50 [10] of the same compound?
Answer: Its IC50 is > 20 µM (inactive).

Question: For `CCc1cccc(C)c1NC(=O)c1ccc(-c2cc(OC)ccc2OC)o1`, which IC50 [11] is on record?
Answer: Its IC50 is > 25 µM (inactive).

Question: And the IC50 [12]?
Answer: Its IC50 is > 25 µM (inactive).

Question: What about the IC50 [13] of the same compound?
Answer: Its IC50 is > 25 µM (inactive).

Question: And the IC50 [14]?
Answer: Its IC50 is 0.513 µM (active).

Question: And the IC50 [15]?
Answer: The IC50 was > 25 µM (inactive).

Question: Which EC50 [16] does the source give for `Cc1c(Cl)cccc1N=C(S)NCCC(c1ccccc1)c1ccccc1` here?
Answer: The EC50 was 8.52 µM (active).

Question: And the EC50 [17]?
Answer: Its EC50 is 3.76 µM (active).

Question: And the EC50 [18]?
Answer: Its EC50 is > 150 µM (not active).

Question: What about the IC50 [19] of the same compound?
Answer: Its IC50 is 8.34 µM (active).

Question: And the IC50 [20]?
Answer: Its IC50 is 29 µM (active).

Question: And the IC50 [21]?
Answer: Its IC50 is 42.4 µM (active).
